Results on 2 molecules are retold here after patent US20210196685A1, “COMPOSITION FOR ERADICATING HELICOBACTER PYLORI” (HK INNO.N CORPORATION, priority 2018, published 2021).

“Also recorded” adds a separate entry of the source.

The nature of data set [1]: Clinical Study 1, Cohort 1: pharmacokinetic interaction of multiple-dose tegoprazan and amoxicillin/clarithromycin. It counts as in vivo, human. The following applies: for change of AUC on administering the three formulations in combination (in words) / change of Cmax on administering the three formulations in combination (in words): tegoprazan + amoxicillin + clarithromycin in combination. How it is done:
To evaluate pharmacokinetic interaction of multiple-dose administration of single and combination of tegoprazan and amoxicillin/clarithromycin, a clinical study was designed in accordance with a randomized, open-label, and multiple-dose design.
A total of 24 subjects who had been determined eligible to participate in the study were randomly assigned in a 1:1 ratio to each one of the two groups. Each randomly-assigned group was administered with investigational medical products as arranged during each intervention period and underwent a clinical study as designed. In consideration of the half-life of each product, a 14-day wash-out period was given between the intervention periods.
A total of 24 subjects were divided into group 1 and group 2. During the first intervention period, subjects of group 1 (12 person) were repeatedly administered with 100 mg of tegoprazan twice a day for four days and administered once a day on the fifth day on which a pharmacokinetic clinical study was conducted. During the second intervention period after a 14-day wash-out period, they were repeatedly administered with 1000 mg of amoxicillin and 500 mg of clarithromycin twice a day for four days and administered once a day on the fifth day. During the third intervention period after a 14-day wash-out period, they were repeatedly administered with 100 mg of tegoprazan, 1000 mg of amoxicillin, and 500 mg of clarithromycin twice a day for six days and administered once a day on the seventh day. Following the last dose of each intervention period, pharmacokinetic blood samples were collected for 17 times over 72 hours in the first period, 14 times over 48 hours in the second period, and 19 times over 120 hours in the third period.
Drugs were administered to subjects of group 2 (12 person) in the reverse order to the way the study was conducted on group 1 in the first and second intervention periods and in the same order in the third intervention period. Pharmacokinetic blood samples were collected in the same manner as group 1.
The average plasma concentrations of tegoprazan, clarithromycin, and amoxicillin were measured and time-based plasma concentration and time-based drug concentration patterns were observed when tegoprazan was repeatedly administered alone, amoxicillin/clarithromycin were repeatedly administered and tegoprazan, amoxicillin, and clarithromycin were repeatedly administered in combination.
Pharmacokinetics of tegoprazan, amoxicillin, and clarithromycin were evaluated. Descriptive statistics of pharmacokinetic evaluation parameters were presented. Point estimates for geometric mean ratio between each group and 90% confidence interval were calculated from the log-converted primary pharmacokinetic evaluation parameters by using a linear mixed effect model.

Data set [2] in a line: Clinical Study 1, Cohort 2: 24-hour intragastric pH on repeated co-administration with amoxicillin/clarithromycin. Format: in vivo, human. The text has this: To identify an effect of eradicating Helicobacter pylori in the present invention, a clinical study was designed in accordance with a randomized, open-label, active-controlled, parallel and multiple-dose design. A total of 221 patients were subjected to screening for this study. Out of them, 36 patients were registered thereto and the completed clinical results were obtained from 34 patients.
Particularly, the 36 patients above were divided into three patient groups (T1, T2 and R) and the clinical study was performed accordingly. […]
The T1 group was repeatedly given 50 mg of CJ-12420 and 1000 mg of amoxicillin/500 mg of clarithromycin twice a day for seven days; the T2 group was repeatedly given 100 mg of CJ-12420 and 1000 mg of amoxicillin/500 mg of clarithromycin twice a day for seven days; and the R group was repeatedly given 40 mg of pantoprazole and 1000 mg of amoxicillin/500 mg of clarithromycin twice a day for seven days. An intragastric pH was measured from all the subjects on Day 1 for 24 hours, and the intragastric pH was also measured for 24 hours on Day 1 and Day 7 of repeated administration. Also, a negative conversion rate was calculated upon a follow-up visit paid by subjects who were identified to be H. pylori positive on the UBT test during screening, and stability evaluation was performed according to a predetermined schedule. […]

The mark [3] stands for this setting: tegoprazan 100 mg twice a day, with amoxicillin 1000 mg/clarithromycin 500 mg versus alone.

In the case of `Cc1nc2c(OC3CCOc4cc(F)cc(F)c43)cc(C(=O)N(C)C)cc2[nH]1` (stereo not shown) [Tegoprazan, 4-[(5,7-difluoro-3,4-dihydro-2H-chromene-4-yl)oxy]-N,N,2-trimethyl-1H-benzimidazole-6-carboxamide], in data set [1] (setting [3]), the “increase of AUC when administered in combination with amoxicillin/clarithromycin” value is listed as 2.70 times and the “increase of Cmax when administered in combination with amoxicillin/clarithromycin” value was determined as 2.24 times. In addition, in data set [1], the “change of AUC on administering the three formulations in combination (in words)” value is “increased” and the “change of Cmax on administering the three formulations in combination (in words)” value is recorded as “increased”. Further, the “speed of intragastric pH increase (to 6 or more) right after the administration” value in data set [2] was “two hours or less”.

Take `CC[C@H]1OC(=O)[C@H](C)[C@@H](O[C@H]2C[C@@](C)(OC)[C@@H](O)[C@H](C)O2)[C@H](C)[C@@H](O[C@@H]2O[C@H](C)C[C@H](N(C)C)[C@H]2O)[C@](C)(OC)C[C@@H](C)C(=O)[C@H](C)[C@@H](O)[C@]1(C)O` [clarithromycin, (3R,4S,5S,6R,7R,9R,11R,12R,13S,14R)-6-[(2S,3R,4S,6R)-4-(dimethylamino)-3-hydroxy-6-methyloxane-2-yl]oxy-14-ethyl-12,13-dihydroxy-4-[(2R,4R,5S,6S)-5-hydroxy-4-methoxy-4,6-dimethyloxane-2-yl]oxy-7-methoxy-3,5,7,9,11,13-hexamethyl-oxacyclotetradecane-2,10-dione, reference compound]: in data set [1], the “change of AUC on administering the three formulations in combination (in words)” value is listed as “tendency to increase; also recorded: increased” and the “change of Cmax on administering the three formulations in combination (in words)” value was “tendency to increase; also recorded: increased”.
